In patent publication US20240400521A1, “QUINAZOLINE COMPOUND, COMPOSITION, AND APPLICATION THEREOF” (BEIJING SCITECH-MQ PHARMACEUTICALS LIMITED, priority 2021, published 2024):

What was measured:
HER2 kinase = biological target: T1, HER2 kinase (Homo sapiens, UniProt P04626); assay: HER2 kinase assay (ULight peptide / Eu-PT66 antibody detection); format: biochemical
T1 construct: purchased Carna Biosciences 08-016
Description: (§1) Reagents and consumables: ULight™-labeled Ploy GT Peptide (Perkin Elmer, Cat. No. TRF-0100-M); ULight™-labeled JAK-1 (Try1023) Peptide (Perkin Elmer, Cat. No. TRF-0121-M); Eu-W1024-labeled Anti-Phosphotyrosine Antibody (PT66) (Perkin Elmer, Cat. No. AD0068); 10×Detection Buffer (Perkin Elmer, Cat. No. CR97-100); HER2 Kinase (Carna Biosciences, Cat. No. 08-016); EGFR kinase (Carna Biosciences, Cat. No. 08-115); HEPES (GIBCO, Cat. No. 15630-080); EGTA (Sigma, Cat. No. 03777-10G); EDTA (Sigma, Cat. No. EDS-100G); MgCl2 (Sigma, Cat. No. 63069-100ML); DTT (Sigma, Cat. No. 43816-10ML); Tween-20 (Sigma, Cat. No. P7949-100ML); DMSO (Life Science, Cat. No. 0231-500ML); 384-well plates (Perkin Elmer, Cat. No. 607290); multifunctional plate reader (Perkin Elmer, Cat. No. Envision)
(§2) Preparation of compound solution: The assay compound was dissolved in DMSO to form a 10 mM stock solution. Prior to use, the compound was diluted to 0.25 mM in DMSO (100 times the final concentration of the diluent) and then subjected to a 3-fold concentration gradient dilution to obtain a total of 11 concentrations. The solution was diluted with buffer to a diluent with 4× the final concentration when the drug was added.
HER2 kinase assay: buffer was prepared, and 40 nM 4× HER2 kinase solution, 40 μM 4× ATP solution, and 400 nM 4×ULight™-labeled Ploy GT Peptide substrate solution were prepared using the buffer. After the preparation was completed, the enzyme was mixed with different concentrations of compounds pre-prepared by dilution, and the mixture was left to stand at room temperature for 5 min. Each concentration was performed in duplicate. The corresponding substrate and ATP were added and the mixture was reacted at room temperature for 120 minutes (with negative and positive controls). After completion of the reaction, PT66 detection antibody was added. The mixture was incubated at room temperature for 60 minutes, and then detected by Envision.
(§3) Data Calculation: the reading of well and inhibition rate were calculated using Excel, wherein reading of well=10000*(well EU665 value)/(well EU615 value), and inhibition rate=[(reading of positive control well−reading of assay well)/(reading of positive control well−reading of negative control well)]*100%. Compound concentrations and corresponding inhibition rates were input into GraphPad Prism for processing to calculate IC50 values.

HCC-827 cells = assay: Inhibition of cell proliferation, CTG method, HCC-827; format: cell-based; details: Homo sapiens, HCC827, 72 hours
Description: The present application examined the in vitro anti-proliferative activity of the compounds of the present disclosure against in vitro cultured HCC-827, Ba/F3-EGFR-VIII and Ba/F3 EGFR D770_N771insSVD cell lines by CTG method.
Reagents and consumables: RPMI1640 (ThermoFisher, Cat. No. C11875500BT); DMEM (ThermoFisher, C11995500BT); fetal bovine serum (Hyclone, Cat. No. SV30087.03); 0.25% trypsin-EDTA (ThermoFisher, Cat. No. 25200072); penicillin-streptomycin (Hyclone, Cat. No. SV30010); DMSO (Life Science, Cat. No. 0231-500ML); CTG assay kit (Promega, Cat. No. G9243); 96-well plate (Corning, Cat. No. 3599); multifunctional plate reader (Perkin Elmer, Cat. No. Envision)
Cell lines: HCC-827 (from ATCC), Ba/F3-EGFR-VIII and Ba/F3 EGFR D770_N771insSVD (all from KYinno Biotechnology (Beijing) Co., Ltd.); all of the above cells were cultured with RPMI1640 medium containing 10% fetal bovine serum, 100 U/mL penicillin, and 100 μg/mL streptomycin in the culture process, and HCC-827 was cultured with DMEM medium containing 10% fetal bovine serum, 100 U/mL penicillin, and 100 μg/mL streptomycin.
• 1. The assay compound was dissolved with DMSO to form a stock solution and a gradient dilution was performed, followed by dilution with the corresponding medium to obtain a solution with 5-fold working concentration. • 2. Cells in logarithmic growth phase were adjusted to specific cell densities by dilution with culture medium, and 80 μL of cell suspension was added to a 96-well plate, such that plating densities of cells of HCC-827, Ba/F3-EGFR-VIII and Ba/F3 EGFR D770_N771insSVD were all 3000 cells/well. The cells of Ba/F3-EGFR-VIII and Ba/F3 EGFR D770_N771insSVD were used directly in the next step (treatment with compound), whereas the HCC-827 needed to be cultured overnight in a 37° C., 5% carbon dioxide gas incubator to adhere to the wall, and then treated with compounds. • 3. 20 μL of compound solution was added to each well of the 96-well plate that had been inoculated with cells. The highest concentration of the assayed compound was 10 μM, 4-fold serial dilution, a total of 9 concentrations, and duplicate wells. A control group without compound was also set up. • 4. The cells were cultured for another 72 hours, and then cell viability was detected by CTG assay kit. Signal values were read with a multifunctional plate reader (Perkin Elmer). GraphPad Prism software was used to create a dose-response curve and IC50 was calculated.

EGFR^WT kinase = biological target: T2, EGFR^WT kinase (Homo sapiens, UniProt P00533); assay: EGFR^WT kinase assay (ULight peptide / Eu-PT66 antibody detection); format: biochemical
T2 construct: purchased Carna Biosciences 08-115
Description: as §1, §2
EGFR^WT kinase assay: buffer was prepared, and 3.48 nM 4× EGFR kinase solution, 600 μM 4× ATP solution, and 400 nM 4×ULight™-labeled JAK-1 (Try1023) Peptide substrate solution was prepared using the buffer. After the preparation was completed, the enzyme was mixed with different concentrations of compounds pre-prepared by dilution, and the mixture was left to stand at room temperature for 5 min. Each concentration was performed in duplicate. The corresponding substrate and ATP were added and the mixture was reacted at room temperature for 120 minutes (with negative and positive controls). After completion of the reaction, PT66 detection antibody was added. The mixture was incubated at room temperature for 60 minutes, and then detected by Envision.
as §3

T2 sequence (P00533 25-1210): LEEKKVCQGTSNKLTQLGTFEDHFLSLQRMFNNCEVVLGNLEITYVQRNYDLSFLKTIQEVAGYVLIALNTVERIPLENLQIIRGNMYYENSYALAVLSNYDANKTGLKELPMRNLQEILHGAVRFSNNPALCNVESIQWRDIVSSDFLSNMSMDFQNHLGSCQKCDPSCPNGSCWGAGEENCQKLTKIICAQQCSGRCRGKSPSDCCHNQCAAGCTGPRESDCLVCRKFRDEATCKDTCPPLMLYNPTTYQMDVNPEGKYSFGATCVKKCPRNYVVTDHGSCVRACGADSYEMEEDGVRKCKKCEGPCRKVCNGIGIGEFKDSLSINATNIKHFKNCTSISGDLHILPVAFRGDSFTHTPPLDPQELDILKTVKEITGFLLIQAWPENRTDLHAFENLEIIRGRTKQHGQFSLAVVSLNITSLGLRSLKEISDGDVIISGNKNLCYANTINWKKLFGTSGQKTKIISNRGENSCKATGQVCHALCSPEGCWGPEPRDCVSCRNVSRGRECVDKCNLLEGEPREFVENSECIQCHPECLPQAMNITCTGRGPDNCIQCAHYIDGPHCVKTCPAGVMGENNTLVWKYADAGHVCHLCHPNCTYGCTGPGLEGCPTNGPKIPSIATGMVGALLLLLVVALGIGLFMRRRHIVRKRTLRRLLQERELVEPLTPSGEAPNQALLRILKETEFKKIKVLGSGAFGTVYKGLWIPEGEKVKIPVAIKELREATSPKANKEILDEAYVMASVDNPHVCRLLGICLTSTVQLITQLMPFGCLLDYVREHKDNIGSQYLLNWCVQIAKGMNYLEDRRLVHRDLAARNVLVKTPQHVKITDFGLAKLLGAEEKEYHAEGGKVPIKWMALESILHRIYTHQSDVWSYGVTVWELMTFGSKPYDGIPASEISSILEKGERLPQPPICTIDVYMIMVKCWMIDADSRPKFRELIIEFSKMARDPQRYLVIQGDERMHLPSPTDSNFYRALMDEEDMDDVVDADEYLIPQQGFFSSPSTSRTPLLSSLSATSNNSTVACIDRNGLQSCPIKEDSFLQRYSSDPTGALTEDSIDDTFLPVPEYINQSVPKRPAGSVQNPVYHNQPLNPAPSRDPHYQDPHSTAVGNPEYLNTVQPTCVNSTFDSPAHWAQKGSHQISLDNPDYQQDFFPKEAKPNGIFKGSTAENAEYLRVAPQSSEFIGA
T1 sequence (P04626 23-1255): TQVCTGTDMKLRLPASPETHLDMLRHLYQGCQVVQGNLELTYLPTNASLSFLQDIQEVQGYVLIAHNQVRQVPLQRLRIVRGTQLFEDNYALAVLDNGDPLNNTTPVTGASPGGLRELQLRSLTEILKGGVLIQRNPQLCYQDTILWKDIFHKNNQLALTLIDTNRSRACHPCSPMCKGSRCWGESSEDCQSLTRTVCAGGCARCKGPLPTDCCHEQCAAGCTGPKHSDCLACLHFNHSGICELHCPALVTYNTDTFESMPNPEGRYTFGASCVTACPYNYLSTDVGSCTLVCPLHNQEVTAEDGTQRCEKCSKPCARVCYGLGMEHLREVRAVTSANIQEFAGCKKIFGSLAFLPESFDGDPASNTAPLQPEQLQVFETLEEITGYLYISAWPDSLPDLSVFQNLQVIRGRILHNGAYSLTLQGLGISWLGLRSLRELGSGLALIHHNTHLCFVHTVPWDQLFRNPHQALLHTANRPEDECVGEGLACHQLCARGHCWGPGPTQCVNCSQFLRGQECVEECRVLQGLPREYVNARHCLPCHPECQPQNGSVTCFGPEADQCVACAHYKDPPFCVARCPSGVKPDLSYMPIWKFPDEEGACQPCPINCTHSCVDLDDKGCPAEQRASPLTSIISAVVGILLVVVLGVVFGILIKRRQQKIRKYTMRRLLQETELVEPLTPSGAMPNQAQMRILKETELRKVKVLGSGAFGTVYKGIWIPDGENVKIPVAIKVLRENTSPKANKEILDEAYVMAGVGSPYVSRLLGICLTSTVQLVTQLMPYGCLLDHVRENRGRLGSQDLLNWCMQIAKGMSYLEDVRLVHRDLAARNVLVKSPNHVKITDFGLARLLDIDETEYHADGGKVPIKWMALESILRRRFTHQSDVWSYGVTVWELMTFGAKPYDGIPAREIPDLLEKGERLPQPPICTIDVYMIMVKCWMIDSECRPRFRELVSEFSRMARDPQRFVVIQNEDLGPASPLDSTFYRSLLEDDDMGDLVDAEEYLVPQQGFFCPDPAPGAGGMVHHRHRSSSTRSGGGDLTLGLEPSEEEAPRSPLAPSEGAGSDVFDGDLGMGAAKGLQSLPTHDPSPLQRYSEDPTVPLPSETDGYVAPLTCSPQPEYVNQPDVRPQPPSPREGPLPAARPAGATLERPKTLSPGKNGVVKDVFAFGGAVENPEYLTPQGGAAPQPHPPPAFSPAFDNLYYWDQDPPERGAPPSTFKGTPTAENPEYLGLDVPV

IC50 (HER2 kinase): 100 to 1000 nM
IC50 (HCC-827 cells): ≤ 5 nM
IC50 (EGFR^WT kinase): ≤ 1 nM
SMILES: COc1c(NC(=O)/C=C/CN(C)C)ccc2ncnc(Nc3cccc(Cl)c3F)c12 [Example 1, (E)-N-(4-((3-chloro-2-fluorophenyl)amino)-5-methoxyquinazolin-6-yl)-4-(dimethylamino)but-2-enamide]
